This note sets out measurements from patent publication EP0621779B1, “INDOMETHACIN LYSINATE FOR THERAPEUTIC USE IN OPHTHALMOLOGY” (JUNG, Jean, priority 1992, dated 1993).

A short description of data set [1]: Ocular passage / ocular bioavailability after instillation of eye drops. The format is in vivo. The method, then:
Les biodisponibilités oculaires des deux formes pharmaceutiques sont équivalentes : le passage obtenu avec la solution à 0,142 % d'indométacine (du lysinate d'indométacine) est similaire à celui obtenu avec la suspension à 1 % (INDOCID®). Cette dernière constatation permet d'affirmer que le passage des collyres à travers les différentes barrières oculaires s'effectue bien par la fraction soluble et non par endocytose de microparticules.
Il faut noter également qu'au temps de prélèvement de 2 h les concentrations d'indométacine mesurées dans l'oeil traité par la solution de lysinate d'indométacine à 0,142 % d'indométacine sont supérieures à celles mesurées dans l'oeil traité par la suspension à 1 % d'indométacine; cela peut être dû à une élimination plus rapide de la forme suspension par le fluide lacrymal en raison de l'irritation oculaire provoquée par la taille des particules.
Elle augmente ensuite régulièrement pour atteindre sa valeur maximale environ 30 minutes après l'instillation (3 à 5 % de la dose instillée) et diminue finalement.

Data set [2] in a line: Solubility in solvents (physico-chemical characters). It counts as physicochemical. An excerpt:
Les données des études spectrales (IR, UV, RNM) sont conformes à la structure définie.

A short description of data set [3]: Stability of the isolated salt (storage; dry heat sterilisation of the powder). The format is physicochemical. The note with it: poudre. An excerpt:
Dans un premier temps, la stabilité du lysinate d'indométacine en fonction de la température a été prouvée et les conditions de température et de durée utilisées pour la stérilisation ont été définis. Dans un deuxième temps, une étude microbiologique a permis de vérifier l'efficacité de la méthode.

Regarding `COc1ccc2c(c1)c(CC(=O)O)c(C)n2C(=O)c1ccc(Cl)cc1` [indométacine, reference compound], in data set [1] (10 minutes après l'instillation), the “concentration de l'indométacine dans l'humeur aqueuse” value was “pratiquement nulle”. For the same molecule, in data set [1] (in vivo, topical or ocular, humeur aqueuse, read-out: time after instillation to reach valeur maximale dans l'humeur aqueuse (converted)), the Tmax was about 30 min.
On to `COc1ccc2c(c1)c(CC(=O)O)c(C)n2C(=O)c1ccc(Cl)cc1` [lysinate d'indométacine], for which the solubilité entry in data set [2] (dans l'acétone) is “pratiquement insoluble”; in data set [2] (dans l'acétonitrile), “totalement insoluble”; in data set [2] (dans l'eau), “soluble”; in data set [2] (dans l'éthanol), “totalement insoluble”; in data set [2] (dans l'éther) it was “totalement insoluble”; in data set [2] (dans le chloroforme), “pratiquement insoluble”. In addition, the solubilité entry was “pratiquement insoluble” in data set [2] (dans le dichlorométhane) and “soluble” in data set [2] (dans le méthanol). Further, the “stabilité dans le temps” value in data set [3] (conditions classiques de conservation) is given as “stables dans le temps”. In addition, the “stabilité à la stérilisation par la chaleur sèche” value in data set [3] (température supérieure à 170°C) is “sans être dégradé”. Further, the “passage oculaire (biodisponibilité oculaire)” value in data set [1] (solution à 0,142 % d'indométacine, compared with suspension à 1 % (INDOCID®)) is “similaire”. The “concentrations d'indométacine mesurées dans l'oeil traité” value in data set [1] (temps de prélèvement de 2 h, solution à 0,142 % d'indométacine compared with suspension à 1 % d'indométacine) is listed as “supérieures”.
